Laboratory results reported in patent publication US8216363B2, “Continuous antisolvent crystallization process and system using plug flow reactors” (Illinois Institute of Technology, priority 2008, dated 2012).
Like-named read-outs stand apart in the source and are kept apart here. Blank lines part the entries; values can stand above or below the compound they belong to.

How the values were obtained:
[1] = Crystal size distribution of flufenamic acid crystals by particle analyzer probe (FBRM); type: physicochemical; settings: FIG. 10
Protocol: An undersaturated solution of flufenamic acid (a non-steroidal anti-inflammatory drug) was prepared with 8.7 grams of the active pharmaceutical drug and 700 ml of ethanol (the solvent) in a 1000 ml volumetric flask. The solution was stirred at room temperature (i.e., 25° C.) until complete dissolution.
Flufenamic acid solution and water (the antisolvent) were added to the reactor at constant flow rates using peristaltic pumps. The flow rate of antisolvent added to reactor was chosen in order to maintain a solution/antisolvent ratio of 1:2 vol/vol (ml/ml) in all experiments.
The effects regarding number of addition points of antisolvent on particle size distribution were studied and are summarized in Table 3. In sum, four experiments were conducted. For each experiment, the total antisolvent flow rate was 200 ml/min. In Experiment 1, there was one antisolvent addition point with 200 ml/min of […] added therein. In Experiment 2, there were two antisolvent addition points with 100 ml/min of antisolvent added to the first and second reactor modules, respectively. In Experiment 3, there were three antisolvent addition points with 67 ml/min of antisolvent added to the first, second and third reactor modules, respectively. In Experiment 4, there were four antisolvent addition points with 50 ml/min of antisolvent added to the first, second, third and fourth reactor modules, respectively.
The Raman spectra of the product crystals was collected to ascertain polymorphic form. The CSD of the solid product was also characterized using a particle analyzer probe (e.g., a Lasentec brand probe). The dried crystals were slurried in water and 0.5% of sodium dodecyl sulfate (SDS) surfactant was added to disperse the particles. A magnetic stirrer was used to keep the particles suspended during particle analysis measurements.

[2] = water/methanol 80:20, one stage
Protocol: The solution was maintained at about 35° C., which is 10° C. above the saturation temperature, for at least 2 hours under gentle agitation for complete dissolution of solids. The solution was cooled down and maintained at room temperature (i.e., 25° C.) overnight (approximately 8 hours).
The concentration of antisolvent introduced to the reactor 403 was suitable to maintain a solution/antisolvent ratio of about 80:20 vol/vol (ml/ml) in all of the experiments.
Three experiments were conducted with one point of antisolvent addition (one stage or one reactor module). The residence time for experiments 1, 2 and 3 were 0.5 to 2 min, respectively.
The process was performed under vacuum. The solid phase was dried overnight (approximately 8 hours) at about 65° C. Raman spectra of the product crystals were collected to ascertain the polymorphic form.

[3] = Crystal size distribution of ketoconazole crystals by laser diffraction (continuous plug flow antisolvent crystallization); type: physicochemical
Protocol: A saturated solution of ketoconazole (an anti-fungal drug) was prepared with about 39 grams of the pharmaceutical compound and about 470 ml of methanol as the solvent in a 1000 ml volumetric flask. The solution was maintained at about 35° C. (10° C. above the saturation temperature) for about 2 hours under gentle agitation to ensure complete dissolution of the solids.
The ketoconazole feed solution (ketoconazole and methanol) and the antisolvent (water) were added to the reactor 403 at a constant flow rate using peristaltic pumps 405. The total amount of antisolvent added to the reactor 403 was enough to maintain a solution/antisolvent ratio of about 70:30 vol/vol (ml/ml) in all of the experiments.
The effect of residence time in the reactor (the term residence time is used to denote the total cumulative residence time in all of the reactor modules combined) and number of stages (that is, the number of reactor modules) on crystal size distribution was studied. […]
The effects of residence time and number of stages on the CSD were analyzed. […] Further, the diluted ketoconazole solid in methanol was measured with a UV spectrophotometer (e.g., a GENESYS 20 UV spectrophotometer) in order to determine the concentration of the ketoconazole. […]
The CSD of ketoconazole was measured at different residence times and number of stages as illustrated in Table 1 using laser diffraction. […]

mean crystal size ([1]; first addition point of antisolvent, ethanol/water 1:2): 65-70 μm | mean crystal size ([1]; printed as third addition point (second mention)): approximately 110 μm | mean crystal size ([1]; second addition point of antisolvent): approximately 80 μm | mean crystal size ([1]; third addition point of antisolvent): approximately 95 μm
Structure (SMILES): O=C(O)c1ccccc1Nc1cccc(C(F)(F)F)c1 [flufenamic acid]

polymorphic form of product crystals ([2]; as the residence time increased): β-glycine crystals | polymorphic form of product crystals ([2]; low residence time): α-glycine crystals
Structure (SMILES): NCC(=O)O [glycine]

mean crystal size ([3]; FIG. 5, first stage of antisolvent addition, residence time about 40 min, methanol/water 70:30): about 2.5 μm | mean crystal size ([3]; FIG. 7, two points of antisolvent addition): about 3.0 μm
Structure (SMILES): CC(=O)N1CCN(c2ccc(OCC3COC(Cn4ccnc4)(c4ccc(Cl)cc4Cl)O3)cc2)CC1 (centres unmarked) [ketoconazole]
